# Activity calls are given as the source filed them.
# Tests used:
# [1] = target: T1, Peroxisomal acyl-coenzyme A oxidase 3 (Homo sapiens, UniProt O15254)
# T1 sequence (O15254 whole entry): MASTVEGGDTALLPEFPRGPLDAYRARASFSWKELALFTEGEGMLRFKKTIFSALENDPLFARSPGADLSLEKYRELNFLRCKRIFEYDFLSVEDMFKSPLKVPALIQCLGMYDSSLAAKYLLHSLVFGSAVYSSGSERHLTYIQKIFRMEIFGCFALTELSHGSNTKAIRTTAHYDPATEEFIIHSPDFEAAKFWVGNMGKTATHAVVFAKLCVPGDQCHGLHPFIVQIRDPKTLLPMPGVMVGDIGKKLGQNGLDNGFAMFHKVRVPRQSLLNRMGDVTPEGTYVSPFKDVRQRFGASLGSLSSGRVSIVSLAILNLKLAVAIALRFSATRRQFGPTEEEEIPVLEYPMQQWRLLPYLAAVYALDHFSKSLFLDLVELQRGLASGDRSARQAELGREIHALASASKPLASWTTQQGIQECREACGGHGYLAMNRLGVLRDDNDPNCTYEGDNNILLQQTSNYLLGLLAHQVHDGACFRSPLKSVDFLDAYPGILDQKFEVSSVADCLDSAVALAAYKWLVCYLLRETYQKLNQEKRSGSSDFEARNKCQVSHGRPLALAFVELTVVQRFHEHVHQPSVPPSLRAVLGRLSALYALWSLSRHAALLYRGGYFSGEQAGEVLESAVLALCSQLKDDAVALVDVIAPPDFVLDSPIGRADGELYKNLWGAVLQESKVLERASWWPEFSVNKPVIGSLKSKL
# [2] = target: T2, Cytochrome c1, heme protein, mitochondrial (Homo sapiens, UniProt P08574)
# T2 sequence (P08574 whole entry): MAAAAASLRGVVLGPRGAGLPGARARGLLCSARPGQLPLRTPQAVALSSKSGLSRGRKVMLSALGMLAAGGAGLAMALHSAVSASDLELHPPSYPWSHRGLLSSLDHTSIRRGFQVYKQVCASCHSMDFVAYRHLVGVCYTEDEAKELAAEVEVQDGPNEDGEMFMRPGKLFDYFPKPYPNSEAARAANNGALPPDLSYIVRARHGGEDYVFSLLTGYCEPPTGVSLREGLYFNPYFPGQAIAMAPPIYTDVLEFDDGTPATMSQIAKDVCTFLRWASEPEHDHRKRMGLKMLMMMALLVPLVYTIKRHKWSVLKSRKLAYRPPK
# Ephrin type-B receptor 6 = target: T3, Ephrin type-B receptor 6 (Homo sapiens, UniProt O15197)
# T3 sequence (O15197 whole entry): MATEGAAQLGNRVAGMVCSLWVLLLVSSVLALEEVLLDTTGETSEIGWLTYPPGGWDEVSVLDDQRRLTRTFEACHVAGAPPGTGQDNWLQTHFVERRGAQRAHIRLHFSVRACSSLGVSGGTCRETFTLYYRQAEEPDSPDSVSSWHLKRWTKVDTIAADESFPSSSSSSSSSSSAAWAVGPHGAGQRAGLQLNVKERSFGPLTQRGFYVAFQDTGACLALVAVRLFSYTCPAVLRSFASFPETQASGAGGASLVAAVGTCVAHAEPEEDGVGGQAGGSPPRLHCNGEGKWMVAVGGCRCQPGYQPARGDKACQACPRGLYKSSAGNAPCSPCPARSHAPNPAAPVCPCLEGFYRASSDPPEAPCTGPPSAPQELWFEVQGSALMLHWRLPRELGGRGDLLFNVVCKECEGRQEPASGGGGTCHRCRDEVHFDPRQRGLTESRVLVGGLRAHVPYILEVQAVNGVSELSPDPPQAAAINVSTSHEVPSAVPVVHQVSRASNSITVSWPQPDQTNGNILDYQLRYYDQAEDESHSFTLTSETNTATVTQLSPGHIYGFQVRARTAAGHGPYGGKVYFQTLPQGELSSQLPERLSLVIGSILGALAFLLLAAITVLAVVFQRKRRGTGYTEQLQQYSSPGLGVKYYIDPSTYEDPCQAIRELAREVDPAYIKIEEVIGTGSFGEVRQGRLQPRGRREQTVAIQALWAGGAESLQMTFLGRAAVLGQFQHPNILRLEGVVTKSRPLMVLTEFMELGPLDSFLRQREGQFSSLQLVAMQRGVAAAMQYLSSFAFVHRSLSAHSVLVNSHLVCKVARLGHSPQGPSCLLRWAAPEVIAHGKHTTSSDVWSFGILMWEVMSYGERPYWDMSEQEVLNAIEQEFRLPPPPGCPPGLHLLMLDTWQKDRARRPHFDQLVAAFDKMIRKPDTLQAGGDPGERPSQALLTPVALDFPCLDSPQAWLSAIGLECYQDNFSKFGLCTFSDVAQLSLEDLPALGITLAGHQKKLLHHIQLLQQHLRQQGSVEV
# [3] = target: T4, Mitogen-activated protein kinase kinase kinase 2 (Homo sapiens, UniProt Q9Y2U5)
# T4 sequence (Q9Y2U5 whole entry): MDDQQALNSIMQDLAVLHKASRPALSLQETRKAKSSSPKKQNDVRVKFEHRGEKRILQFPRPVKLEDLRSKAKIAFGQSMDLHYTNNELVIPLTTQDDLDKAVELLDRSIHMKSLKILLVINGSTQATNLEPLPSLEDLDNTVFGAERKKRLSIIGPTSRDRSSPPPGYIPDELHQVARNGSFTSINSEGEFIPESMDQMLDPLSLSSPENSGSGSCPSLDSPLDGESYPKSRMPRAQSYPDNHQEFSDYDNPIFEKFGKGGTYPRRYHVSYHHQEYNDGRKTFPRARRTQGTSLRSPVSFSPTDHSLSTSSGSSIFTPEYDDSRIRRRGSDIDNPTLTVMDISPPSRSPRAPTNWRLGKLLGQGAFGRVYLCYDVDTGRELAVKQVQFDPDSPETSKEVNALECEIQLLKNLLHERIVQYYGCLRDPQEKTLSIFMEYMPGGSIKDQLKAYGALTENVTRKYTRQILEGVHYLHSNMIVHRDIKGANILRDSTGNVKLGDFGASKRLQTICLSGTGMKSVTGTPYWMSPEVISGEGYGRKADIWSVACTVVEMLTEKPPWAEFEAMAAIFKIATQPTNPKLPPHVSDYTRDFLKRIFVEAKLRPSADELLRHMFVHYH
# [4] = target: Mitogen-activated protein kinase kinase kinase 4 (Homo sapiens, UniProt Q9Y6R4)
# Mitogen-activated protein kinase kinase kinase 4, sequence (Q9Y6R4 whole entry): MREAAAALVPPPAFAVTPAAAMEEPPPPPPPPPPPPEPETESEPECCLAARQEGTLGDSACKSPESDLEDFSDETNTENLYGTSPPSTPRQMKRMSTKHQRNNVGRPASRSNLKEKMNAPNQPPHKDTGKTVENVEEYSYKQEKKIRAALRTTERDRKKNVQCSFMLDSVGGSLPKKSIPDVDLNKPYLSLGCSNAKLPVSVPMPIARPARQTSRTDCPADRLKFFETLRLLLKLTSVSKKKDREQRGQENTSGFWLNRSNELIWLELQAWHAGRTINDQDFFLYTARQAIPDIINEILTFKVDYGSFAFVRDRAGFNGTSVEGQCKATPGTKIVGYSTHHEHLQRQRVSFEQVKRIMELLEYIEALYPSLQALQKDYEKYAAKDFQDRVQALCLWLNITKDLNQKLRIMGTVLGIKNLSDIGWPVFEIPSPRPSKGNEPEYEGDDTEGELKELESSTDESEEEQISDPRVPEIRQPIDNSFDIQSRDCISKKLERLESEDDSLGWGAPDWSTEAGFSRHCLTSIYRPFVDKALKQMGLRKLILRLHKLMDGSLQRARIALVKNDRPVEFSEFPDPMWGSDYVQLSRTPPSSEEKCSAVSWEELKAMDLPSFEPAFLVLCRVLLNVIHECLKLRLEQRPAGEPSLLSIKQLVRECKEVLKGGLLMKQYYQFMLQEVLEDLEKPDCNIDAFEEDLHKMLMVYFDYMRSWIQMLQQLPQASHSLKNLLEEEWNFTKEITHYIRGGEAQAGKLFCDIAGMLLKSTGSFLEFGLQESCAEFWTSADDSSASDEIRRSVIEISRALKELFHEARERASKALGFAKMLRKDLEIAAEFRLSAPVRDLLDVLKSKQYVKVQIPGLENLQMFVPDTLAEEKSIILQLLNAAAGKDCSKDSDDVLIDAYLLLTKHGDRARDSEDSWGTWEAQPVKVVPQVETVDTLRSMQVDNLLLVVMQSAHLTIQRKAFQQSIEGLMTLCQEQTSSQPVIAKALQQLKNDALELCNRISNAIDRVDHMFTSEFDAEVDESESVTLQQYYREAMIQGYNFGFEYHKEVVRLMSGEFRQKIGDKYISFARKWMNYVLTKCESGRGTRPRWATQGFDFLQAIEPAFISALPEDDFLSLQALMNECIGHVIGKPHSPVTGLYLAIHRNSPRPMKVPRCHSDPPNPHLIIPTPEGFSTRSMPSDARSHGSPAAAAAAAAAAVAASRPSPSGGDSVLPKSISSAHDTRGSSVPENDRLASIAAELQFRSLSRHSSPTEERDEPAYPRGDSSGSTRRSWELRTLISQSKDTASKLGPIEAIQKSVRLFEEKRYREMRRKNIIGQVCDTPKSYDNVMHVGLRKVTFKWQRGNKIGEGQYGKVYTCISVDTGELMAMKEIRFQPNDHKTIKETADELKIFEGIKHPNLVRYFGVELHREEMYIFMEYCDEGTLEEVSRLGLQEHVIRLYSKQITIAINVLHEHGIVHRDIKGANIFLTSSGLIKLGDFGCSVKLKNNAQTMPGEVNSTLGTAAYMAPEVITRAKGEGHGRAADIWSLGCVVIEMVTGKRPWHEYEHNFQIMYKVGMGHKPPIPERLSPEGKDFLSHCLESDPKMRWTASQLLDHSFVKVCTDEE
# [5] = target: Mitogen-activated protein kinase 1 (Homo sapiens, UniProt P28482)
# Mitogen-activated protein kinase 1, sequence (P28482 whole entry): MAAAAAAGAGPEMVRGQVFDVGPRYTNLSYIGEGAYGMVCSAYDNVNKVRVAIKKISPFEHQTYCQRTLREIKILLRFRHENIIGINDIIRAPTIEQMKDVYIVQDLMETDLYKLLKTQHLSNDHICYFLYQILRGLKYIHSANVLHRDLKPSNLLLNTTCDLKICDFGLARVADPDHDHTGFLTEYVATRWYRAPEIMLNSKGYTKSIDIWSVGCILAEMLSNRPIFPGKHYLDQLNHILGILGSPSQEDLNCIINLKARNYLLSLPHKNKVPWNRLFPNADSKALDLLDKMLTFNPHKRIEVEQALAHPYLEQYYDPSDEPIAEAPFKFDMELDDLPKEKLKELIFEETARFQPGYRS
# [6] = target: Ribosomal protein S6 kinase alpha-5 (Homo sapiens, UniProt O75582)
# Ribosomal protein S6 kinase alpha-5, sequence (O75582 whole entry): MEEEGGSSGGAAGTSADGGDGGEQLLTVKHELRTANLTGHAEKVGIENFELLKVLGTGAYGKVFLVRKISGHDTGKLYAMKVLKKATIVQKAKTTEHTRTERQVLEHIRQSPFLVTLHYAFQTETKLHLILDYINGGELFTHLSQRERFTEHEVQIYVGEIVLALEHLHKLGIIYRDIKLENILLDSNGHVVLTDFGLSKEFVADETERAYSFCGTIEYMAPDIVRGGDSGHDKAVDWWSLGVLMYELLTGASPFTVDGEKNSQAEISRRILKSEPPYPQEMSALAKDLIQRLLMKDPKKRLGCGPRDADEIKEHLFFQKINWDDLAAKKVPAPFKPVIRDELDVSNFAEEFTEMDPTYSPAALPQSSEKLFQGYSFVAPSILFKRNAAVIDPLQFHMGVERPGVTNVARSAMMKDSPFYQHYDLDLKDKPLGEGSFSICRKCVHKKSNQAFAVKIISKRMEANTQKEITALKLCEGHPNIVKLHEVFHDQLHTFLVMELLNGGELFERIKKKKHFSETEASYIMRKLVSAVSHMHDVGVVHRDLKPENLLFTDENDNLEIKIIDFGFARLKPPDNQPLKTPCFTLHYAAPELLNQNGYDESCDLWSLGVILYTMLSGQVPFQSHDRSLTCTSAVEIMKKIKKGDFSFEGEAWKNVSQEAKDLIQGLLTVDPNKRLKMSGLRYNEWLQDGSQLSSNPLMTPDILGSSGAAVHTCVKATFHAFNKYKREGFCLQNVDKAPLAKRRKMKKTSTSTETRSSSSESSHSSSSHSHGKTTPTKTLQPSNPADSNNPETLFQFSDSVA
# [7] = target: Non-receptor tyrosine-protein kinase TYK2 (Homo sapiens, UniProt P29597)
# Non-receptor tyrosine-protein kinase TYK2, sequence (P29597 whole entry): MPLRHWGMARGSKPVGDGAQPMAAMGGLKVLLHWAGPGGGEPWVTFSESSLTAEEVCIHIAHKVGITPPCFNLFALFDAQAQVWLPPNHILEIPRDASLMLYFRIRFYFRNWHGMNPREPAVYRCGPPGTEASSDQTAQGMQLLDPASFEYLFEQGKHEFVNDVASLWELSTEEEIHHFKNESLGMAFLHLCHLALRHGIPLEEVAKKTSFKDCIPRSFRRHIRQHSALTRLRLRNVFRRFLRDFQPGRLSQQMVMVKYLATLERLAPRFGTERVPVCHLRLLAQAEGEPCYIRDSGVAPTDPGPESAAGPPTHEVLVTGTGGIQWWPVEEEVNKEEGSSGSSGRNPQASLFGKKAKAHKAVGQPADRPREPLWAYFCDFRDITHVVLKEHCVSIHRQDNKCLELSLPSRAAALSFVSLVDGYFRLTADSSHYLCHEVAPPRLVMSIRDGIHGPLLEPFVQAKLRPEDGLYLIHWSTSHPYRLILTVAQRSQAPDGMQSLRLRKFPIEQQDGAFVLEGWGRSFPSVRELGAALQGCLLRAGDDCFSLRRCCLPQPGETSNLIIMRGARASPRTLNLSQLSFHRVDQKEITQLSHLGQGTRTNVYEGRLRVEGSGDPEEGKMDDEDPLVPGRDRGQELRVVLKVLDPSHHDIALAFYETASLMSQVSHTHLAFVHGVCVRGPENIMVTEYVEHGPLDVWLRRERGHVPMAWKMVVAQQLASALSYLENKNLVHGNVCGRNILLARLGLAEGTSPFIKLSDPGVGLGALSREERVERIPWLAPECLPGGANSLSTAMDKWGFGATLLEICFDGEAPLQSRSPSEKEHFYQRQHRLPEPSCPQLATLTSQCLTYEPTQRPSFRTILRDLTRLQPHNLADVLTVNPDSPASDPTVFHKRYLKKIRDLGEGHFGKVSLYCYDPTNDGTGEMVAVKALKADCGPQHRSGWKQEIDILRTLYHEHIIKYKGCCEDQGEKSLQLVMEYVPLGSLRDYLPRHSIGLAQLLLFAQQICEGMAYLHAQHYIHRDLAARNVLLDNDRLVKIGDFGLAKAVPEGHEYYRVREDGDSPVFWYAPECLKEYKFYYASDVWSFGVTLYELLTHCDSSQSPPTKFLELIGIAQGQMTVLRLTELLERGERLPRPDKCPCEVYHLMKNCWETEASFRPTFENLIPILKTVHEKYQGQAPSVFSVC
# Also: in the data inactive means no Kd found up to 30 µM.
SMILES,Kd [1],Kd [2],Kd (Ephrin type-B receptor 6),Kd [3],Kd [4],Kd [5],Kd [6],Kd [7]
C[C@H]1CNCCCN1S(=O)(=O)c1cccc2cncc(F)c12,> 30 µM (inactive),> 30 µM (inactive),> 30 µM (inactive),> 30 µM (inactive),> 30 µM (inactive),> 30 µM (inactive),> 30 µM (inactive),> 30 µM (inactive)
C=CC(=O)N1CCC[C@H](n2c(=O)n(-c3ccc(Oc4ccccc4)cc3)c3c(N)ncnc32)C1,> 30 µM (inactive),> 30 µM (inactive),> 30 µM (inactive),> 30 µM (inactive),> 30 µM (inactive),> 30 µM (inactive),> 30 µM (inactive),> 30 µM (inactive)
Cc1nc2cc(-c3nn(C(C)C)c4ncnc(N)c34)ccc2o1,> 30 µM (inactive),> 30 µM (inactive),> 30 µM (inactive),> 30 µM (inactive),> 30 µM (inactive),> 30 µM (inactive),> 30 µM (inactive),> 30 µM (inactive)
Nc1ncnc2c1c(-c1cccc(OCc3ccccc3)c1)cn2[C@H]1C[C@@H](CN2CCC2)C1 [AEW-541],> 30 µM (inactive),> 30 µM (inactive),> 30 µM (inactive),> 30 µM (inactive),> 30 µM (inactive),> 30 µM (inactive),> 30 µM (inactive),> 30 µM (inactive)
Cc1nc(NC(=O)N2CCC[C@H]2C(N)=O)sc1-c1ccnc(C(C)(C)C(F)(F)F)c1 [ALPELISIB],> 30 µM (inactive),> 30 µM (inactive),> 30 µM (inactive),> 30 µM (inactive),> 30 µM (inactive),> 30 µM (inactive),> 30 µM (inactive),> 30 µM (inactive)
Cc1csc(-c2nnc(Nc3ccc(Oc4ncccc4-c4ccnc(N)n4)cc3)c3ccccc23)c1 [AMG-900],> 30 µM (inactive),> 30 µM (inactive),> 30 µM (inactive),1.97 µM (active),> 30 µM (inactive),> 30 µM (inactive),2.15 µM (active),> 30 µM (inactive)
C=CC(=O)Nc1cc2c(Nc3ccc(F)c(Cl)c3)ncnc2cc1C#CC(C)(C)N1CCN(C)CC1 [AV-412 FREE BASE],> 30 µM (inactive),> 30 µM (inactive),> 30 µM (inactive),> 30 µM (inactive),> 30 µM (inactive),> 30 µM (inactive),> 30 µM (inactive),> 30 µM (inactive)
COc1cc([C@@H]2c3cc4c(cc3[C@H](O)[C@H]3COC(=O)[C@@H]23)OCO4)cc(OC)c1OC [AXL-1717],> 30 µM (inactive),> 30 µM (inactive),> 30 µM (inactive),> 30 µM (inactive),> 30 µM (inactive),> 30 µM (inactive),> 30 µM (inactive),> 30 µM (inactive)
Cc1cc(C(=O)NOCCO)c(Nc2ccc(I)cc2F)n(C)c1=O [AZD-8330],> 30 µM (inactive),> 30 µM (inactive),> 30 µM (inactive),> 30 µM (inactive),> 30 µM (inactive),> 30 µM (inactive),> 30 µM (inactive),> 30 µM (inactive)
Cn1cnc2c(F)c(Nc3ccc(Br)cc3F)c(C(=O)NOCCO)cc21 [BINIMETINIB],> 30 µM (inactive),> 30 µM (inactive),> 30 µM (inactive),> 30 µM (inactive),> 30 µM (inactive),> 30 µM (inactive),> 30 µM (inactive),> 30 µM (inactive)
CCn1c(C(=O)N(C2CC2)C2CC2)cc2c3c(ncn3C)c(Nc3cc(C)n(C)n3)nc21 [BMS-911543],> 30 µM (inactive),> 30 µM (inactive),> 30 µM (inactive),> 30 µM (inactive),> 30 µM (inactive),> 30 µM (inactive),> 30 µM (inactive),> 30 µM (inactive)
COc1cc2ncnc(Oc3cccc(NC(=O)Nc4cc(C(C)(C)C(F)(F)F)on4)c3)c2cc1OC [CEP-32496],> 30 µM (inactive),> 30 µM (inactive),> 30 µM (inactive),> 30 µM (inactive),> 30 µM (inactive),> 30 µM (inactive),> 30 µM (inactive),> 30 µM (inactive)
Cc1cc(Nc2ncc(Cl)c(Nc3ccccc3S(=O)(=O)C(C)C)n2)c(OC(C)C)cc1C1CCNCC1 [CERITINIB],> 30 µM (inactive),> 30 µM (inactive),> 30 µM (inactive),> 30 µM (inactive),> 30 µM (inactive),> 30 µM (inactive),> 30 µM (inactive),> 30 µM (inactive)
COc1c(OCCCN2CCOCC2)ccc2c1N=C(NC(=O)c1cnc(N)nc1)N1CCN=C21 [COPANLISIB],> 30 µM (inactive),> 30 µM (inactive),> 30 µM (inactive),> 30 µM (inactive),> 30 µM (inactive),> 30 µM (inactive),> 30 µM (inactive),> 30 µM (inactive)
COCC(=O)NC/C=C/c1ccc2ncnc(Nc3ccc(Oc4ccc(C)nc4)c(C)c3)c2c1 [CP-724714],> 30 µM (inactive),> 30 µM (inactive),> 30 µM (inactive),> 30 µM (inactive),> 30 µM (inactive),> 30 µM (inactive),> 30 µM (inactive),> 30 µM (inactive)
C#Cc1cccc(Nc2ncnc3cc(OC)c(OCCCCCCC(=O)NO)cc23)c1 [CUDC-101],> 30 µM (inactive),> 30 µM (inactive),> 30 µM (inactive),> 30 µM (inactive),> 30 µM (inactive),> 30 µM (inactive),> 30 µM (inactive),> 30 µM (inactive)

# — ChEMBL document CHEMBL3991601, “The target landscape of clinical kinase drugs” (Science, 2017)
